Data: patent US9688702B2, “Alpha-amino boronic acid derivatives, selective immunoproteasome inhibitors” (Ares Trading S.A, priority 2011, dated 2017)

Assays:
[1] = target: Beta5 (purified human constitutive proteasome) (Homo sapiens, UniProt P28074); assay: Determination of Beta5 activity (fluorescence intensity assay, Suc-LLVY-AMC); format: biochemical; conditions: purified human constitutive proteasome 1.0 nM, 40 μM Suc-LLVY-AMC, 37° C.
In short: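 Purified human constitutive proteasome (1.0 nM) was preincubated 30 min at 37 °C with compounds (10 μM to 38 pM) in 50 mM Tris pH 7.4, 0.03% SDS. Suc-LLVY-AMC (40 μM) was then added and fluorescence (ex 350/em 450 nm) read after 90 min at 37 °C.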

[2] = target: LMP7 (purified human immuno proteasome) (Homo sapiens, UniProt P28062); assay: Determination of LMP7 activity (fluorescence intensity assay, Suc-LLVY-AMC); format: biochemical; conditions: for IC50: 40 μM Suc-LLVY-AMC, 37° C.
In short: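 Purified human immunoproteasome (0.5 nM or 0.25 nM) preincubated 30 min at 37 °C with compounds (10 μM to 38 pM) in 50 mM Tris pH 7.4, 0.03% SDS. Suc-LLVY-AMC added at 40 μM; after 90 min at 37 °C, fluorescence read at ex 350/em 450 nm.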

[3] = purified human immuno proteasome 0.25 nM (examples 79, 80, 83, 84, 85, 87, 88, 89, 90, 91, 93, 94, 96, 97, 101 and 110)
[4] = purified human immuno proteasome 0.5 nM

| SMILES | IC50 [1] [nM] | Selectivity LMP7 vs Beta5 [2] | IC50 [2, 3] [nM] | IC50 [2, 4] [nM] |
| --- | --- | --- | --- | --- |
| CCc1cccc(C[C@H](NC(=O)[C@@H](CC(=O)c2ccccc2)c2ccc(Cl)cc2)B(O)O)c1 (single isomer, unassigned) [Example 16] | > 5000 | – | – | 500 to 5000 |
| O=C(CCC(=O)c1ccccc1)N[C@@H](Cc1ccsc1)B(O)O [Example 1, [(1R)-1-[(4-oxo-4-phenylbutanoyl)amino]-2-(3-thienyl)ethyl]boronic acid] | 500 to 5000 | ++ (++: 10 < Selectivity < 30) | – | 50 to 500 |
| CCc1cccc(C[C@H](NC(=O)CCn2ncc3ccccc32)B(O)O)c1 [Example 28, ((1R)-2-(3-ethylphenyl)-1-{[3-(1H-indazol-1-yl)propanoyl]amino}ethyl)boronic acid] | 500 to 5000 | ++ (++: 10 < Selectivity < 30) | – | 50 to 500 |
| COc1ccc(C(=O)C[C@@H](Cc2ccccc2)C(=O)N[C@@H](Cc2ccc(OC)c(C(F)(F)F)c2)B(O)O)cc1 [Example 45, ((R)-1-((R)-2-benzyl-4-(4-methoxyphenyl)-4-oxobutanamido)-2-(4-methoxy-3-(trifluoromethyl)phenyl)ethyl)boronic acid] | 500 to 5000 | +++ (+++: Selectivity > 30) | – | < 50 |
| O=C(CCC(=O)c1cccc(-c2ccccc2)n1)N[C@@H](Cc1ccsc1)B(O)O [Example 23, [(1R)-1-{[4-oxo-4-(6-phenylpyridin-2-yl)butanoyl]amino}-2-(3-thienyl)ethyl]boronic acid] | 500 to 5000 | ++ (++: 10 < Selectivity < 30) | – | 50 to 500 |
| CCOc1cccc(CC(NC(=O)CCn2cc(-c3ccccc3)nn2)B(O)O)c1 (centres unmarked) [Example 70, (2-(3-ethoxyphenyl)-1-(3-(4-phenyl-1H-1,2,3-triazol-1-yl)propanamido)ethyl)boronic acid] | 50 to 500 | ++ (++: 10 < Selectivity < 30) | – | < 50 |
| O=C(CC(C(=O)N[C@@H](Cc1ccsc1)B(O)O)c1ccc(Cl)cc1)c1ccccc1 (mixture of isomers) [Example 4, [(1R)-1-{[2-(RS)-(4-chlorophenyl)-4-oxo-4-phenylbutanoyl]amino}-2-(3-thienyl)ethyl]boronic acid] | 500 to 5000 | +++ (+++: Selectivity > 30) | – | 50 to 500 |
| COc1ccc(C(=O)CCC(=O)N[C@@H](Cc2cc(F)cc(OC)c2)B(O)O)cc1 [Example 47, (R)-(2-(3-fluoro-5-methoxyphenyl)-1-(4-(4-methoxyphenyl)-4-oxobutanamido)ethyl)boronic acid] | > 5000 | +++ (+++: Selectivity > 30) | – | 50 to 500 |
| CCc1cccc(C[C@H](NC(=O)Cn2ccc3ccccc3c2=O)B(O)O)c1 [Example 42, ((1R)-2-(3-ethylphenyl)-1-{[(1-oxoisoquinolin-2(1H)-yl)acetyl]amino}ethyl)boronic acid] | 500 to 5000 | ++ (++: 10 < Selectivity < 30) | – | 50 to 500 |
| CCc1cccc(C[C@H](NC(=O)CCn2nnc3ccccc32)B(O)O)c1 [Example 31, [(1R)-1-{[3-(1H-1,2,3-benzotriazol-1-yl)propanoyl]amino}-2-(3-ethylphenyl)ethyl]boronic acid] | 50 to 500 | ++ (++: 10 < Selectivity < 30) | – | < 50 |
| O=C(CCn1cnc2ccccc21)N[C@@H](Cc1cccc(OC(F)(F)F)c1)B(O)O [Example 59, (R)-(1-(3-(1H-benzo[d]imidazol-1-yl)propanamido)-2-(3-(trifluoromethoxy)phenyl)ethyl)boronic acid] | 50 to 500 | + (+: Selectivity < 10) | – | < 50 |
| COc1ccc(C(=O)CC(Cc2ccccc2)C(=O)N[C@@H](Cc2cc(F)cc(OC)c2)B(O)O)cc1 (stereo partly drawn) [Example 49, ((1R)-1-(2-benzyl-4-(4-methoxyphenyl)-4-oxobutanamido)-2-(3-fluoro-5-methoxyphenyl)ethyl)boronic acid] | 50 to 500 | ++ (++: 10 < Selectivity < 30) | – | < 50 |

The next lines start with the values.

| IC50 [1] [nM] | Selectivity LMP7 vs Beta5 [2] | IC50 [2, 3] [nM] | IC50 [2, 4] [nM] | SMILES |
| --- | --- | --- | --- | --- |
| < 50 | +++ (+++: Selectivity > 30) | < 50 | – | O=C(CCc1cccc(F)c1)N[C@@H](Cc1coc2ccccc12)B(O)O [Example 85, (R)-(2-(benzofuran-3-yl)-1-(3-(3-fluorophenyl)propanamido)ethyl) boronic acid] |
| 50 to 500 | ++ (++: 10 < Selectivity < 30) | – | < 50 | O=C(CCn1cc(-c2ccccc2)nn1)N[C@@H](Cc1ccsc1)B(O)O [Example 40, [(1R)-1-{[3-(4-phenyl-1H-1,2,3-triazol-1-yl)propanoyl]amino}-2-(3-thienyl)ethyl]boronic acid] |
| 50 to 500 | ++ (++: 10 < Selectivity < 30) | – | < 50 | O=C(CCn1cnc2ccccc21)N[C@@H](Cc1ccc(F)c(C(F)(F)F)c1)B(O)O [Example 64, (R)-(1-(3-(1H-benzo[d]imidazol-1-yl)propanamido)-2-(4-fluoro-3-(trifluoromethyl)phenyl)ethyl)boronic acid] |
| 50 to 500 | ++ (++: 10 < Selectivity < 30) | – | < 50 | CCc1cccc(C[C@H](NC(=O)CCn2cnc3ccccc32)B(O)O)c1 [Example 29, [(1R)-1-{[3-(1H-benzimidazol-1-yl)propanoyl]amino}-2-(3-ethylphenyl)ethyl]boronic acid] |
| < 50 | ++ (++: 10 < Selectivity < 30) | – | < 50 | COc1ccccc1CCC(=O)N[C@@H](Cc1coc2ccccc12)B(O)O [Example 82] |
| < 50 | ++ (++: 10 < Selectivity < 30) | < 50 | – | CCc1cccc(C[C@H](NC(=O)C(Cn2cc(-c3ccccc3)nn2)Cn2ccsc2=O)B(O)O)c1 (stereo partly drawn) [Example 110, ((1R)-2-(3-ethylphenyl)-1-(3-(2-oxothiazol-3(2H)-yl)-2-((4-phenyl-1H-1,2,3-triazol-1-yl)methyl)propanamido)ethyl)boronic acid] |
| 50 to 500 | +++ (+++: Selectivity > 30) | – | < 50 | COc1ccc(C(=O)C[C@H](Cc2ccccc2)C(=O)N[C@@H](Cc2ccsc2)B(O)O)cc1 (single isomer, unassigned) [Example 24] |
| 50 to 500 | + (+: Selectivity < 10) | – | 50 to 500 | O=C(CCn1cnc2ccccc21)N[C@@H](Cc1ccsc1)B(O)O [Example 33, [(1R)-1-{[3-(1H-benzimidazol-1-yl)propanoyl]amino}-2-(3-thienyl)ethyl]boronic acid] |
